Test results published in patent US6008215A, “Benzonaphthyridines as bronchial therapeutics” (Byk Gulden Lomberg Chemische Fabrik GmbH, priority 1996, dated 1999).
Counter-ions that a name gives are not always drawn.

Columns and labels:
Format in all cases: biochemical
PDE3 = PDE3 (Homo sapiens, UniProt Q14432); experiment: Inhibition of PDE isoenzymes: PDE3 (cGMP-inhibited), homogenates of human blood platelets; conditions: read-out: -log IC50, PDE3 (converted)
Procedure: (§1) The PDE activity was determined according to Thompson et al. (1) with some modifications (2). The test samples contained 40 mM tris HCl (pH 7.4), 5 mM MgCl2, 0.5 μM cAMP or cGMP, [^3 H] cAMP or [^3 H]cGMP (about 50,000 cpm/sample), the PDE isoenzyme-specific additions described in greater detail below, the indicated concentrations of inhibitor and an aliquot of the enzyme solution in a total sample volume of 200 μl. […] After preincubation at 37° C. for 5 minutes, the reaction was started by addition of the substrate (cAMP or cGMP). The samples were incubated at 37° C. for a further 15 min. The reaction was terminated by addition of 50 μl of 0.2N HCl. After cooling on ice for 10 minutes and addition of 25 μg of 5'-nucleotidase (snake venom from Crotalus atrox), the mixture was again incubated at 37° C. for 10 min and the samples were then applied to QAE Sephadex A-25 columns. The columns were eluted with 2 ml of 30 mM ammonium formate (pH 6.0). The radioactivity of the eluate was measured and corrected by the corresponding blank values. The proportion of hydrolyzed nucleotide in no case exceeded 20% of the original substrate concentration.
PDE3 (cGMP-inhibited) and PDE5 (cGMP-specific) were investigated in homogenates of human blood platelets [Schudt et al. (4)] using cAMP or cGMP as a substrate.
(§2) The IC50 values were determined from the concentration-inhibition curves by nonlinear regression using the GraphPad InPlot™ program (GraphPad Software Inc., Philadelphia, U.S.A.).
In Table 1 below, the inhibitory concentrations determined according to Section A1 [inhibitory concentrations as -log IC50 (mol/l)] for the compounds according to the invention are indicated for various PDE isoenzymes. The numbers of the compounds correspond to the numbers of the examples.

PDE4 = experiment: Inhibition of PDE isoenzymes: PDE4 (cAMP-specific), cytosol of human polymorphonuclear leukocytes; conditions: PDE4, cytosol of human PMNL, cAMP as substrate, motapizone (1 μM) present
PDE2 = biological target: T1, PDE2 (Rattus norvegicus, UniProt Q01062); experiment: Inhibition of PDE isoenzymes: PDE2 (cGMP-stimulated) from rat hearts; conditions: cGMP (5 μM), cAMP as substrate, read-out: -log IC50, PDE2 (converted)
T1 construct: from rat hearts was purified chromatographically; from tissue; host or cells: rat heart, chromatographically purified
T1 sequence (Q01062 1-928): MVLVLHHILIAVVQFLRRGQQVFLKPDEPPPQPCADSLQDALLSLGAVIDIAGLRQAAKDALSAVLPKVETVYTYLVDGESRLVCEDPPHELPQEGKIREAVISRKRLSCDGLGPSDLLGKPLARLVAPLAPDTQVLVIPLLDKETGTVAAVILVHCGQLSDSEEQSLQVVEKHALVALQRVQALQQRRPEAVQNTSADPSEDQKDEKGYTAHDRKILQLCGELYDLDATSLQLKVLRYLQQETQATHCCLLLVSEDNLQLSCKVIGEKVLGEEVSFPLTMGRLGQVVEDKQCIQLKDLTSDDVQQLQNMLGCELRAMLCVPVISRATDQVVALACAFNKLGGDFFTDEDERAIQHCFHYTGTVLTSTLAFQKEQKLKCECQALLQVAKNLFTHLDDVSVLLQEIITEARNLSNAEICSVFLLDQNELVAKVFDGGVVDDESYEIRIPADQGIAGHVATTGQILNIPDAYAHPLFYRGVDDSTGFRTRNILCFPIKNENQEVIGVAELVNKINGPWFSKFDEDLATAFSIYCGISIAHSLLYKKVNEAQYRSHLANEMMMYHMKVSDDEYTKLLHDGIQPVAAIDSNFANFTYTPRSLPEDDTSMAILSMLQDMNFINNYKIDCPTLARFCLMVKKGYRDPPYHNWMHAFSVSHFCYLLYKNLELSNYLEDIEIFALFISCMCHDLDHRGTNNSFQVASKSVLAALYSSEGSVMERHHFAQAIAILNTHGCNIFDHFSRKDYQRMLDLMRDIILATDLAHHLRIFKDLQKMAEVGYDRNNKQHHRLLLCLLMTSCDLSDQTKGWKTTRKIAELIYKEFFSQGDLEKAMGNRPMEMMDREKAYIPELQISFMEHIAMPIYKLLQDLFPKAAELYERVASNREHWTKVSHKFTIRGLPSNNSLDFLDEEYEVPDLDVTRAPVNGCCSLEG
Procedure: as §1, with “The columns were eluted with 2 ml of 30 mM ammonium formate (pH 6.0).” left out, “The proportion of hydrolyzed nucleotide in no case exceeded 20% of the original substrate concentration.” left out
as §2
(§3) In Table 1 below, the inhibitory concentrations determined according to Section A1 [inhibitory concentrations as -log IC50 (mol/l)] for the compounds according to the invention are indicated for various PDE isoenzymes. […]

PDE5 = biological target: T2, PDE5 (Homo sapiens, UniProt O76074); experiment: Inhibition of PDE isoenzymes: PDE5 (cGMP-specific), homogenates of human blood platelets; conditions: read-out: -log IC50, PDE5 (converted)
T2 construct: were investigated in homogenates of human blood platelets; from tissue; host or cells: human blood platelets, homogenate
Procedure: as §1, with “The columns were eluted with 2 ml of 30 mM ammonium formate (pH 6.0).” left out, “The proportion of hydrolyzed nucleotide in no case exceeded 20% of the original substrate concentration.” left out
as §2, §3

PDE1 = experiment: Inhibition of PDE isoenzymes: PDE1 (Ca^2+/calmodulin-dependent) from bovine brain; conditions: Ca^2+ (1 mM), calmodulin (100 nM), cGMP as substrate

Sequence of PDE3 (Q14432 whole entry): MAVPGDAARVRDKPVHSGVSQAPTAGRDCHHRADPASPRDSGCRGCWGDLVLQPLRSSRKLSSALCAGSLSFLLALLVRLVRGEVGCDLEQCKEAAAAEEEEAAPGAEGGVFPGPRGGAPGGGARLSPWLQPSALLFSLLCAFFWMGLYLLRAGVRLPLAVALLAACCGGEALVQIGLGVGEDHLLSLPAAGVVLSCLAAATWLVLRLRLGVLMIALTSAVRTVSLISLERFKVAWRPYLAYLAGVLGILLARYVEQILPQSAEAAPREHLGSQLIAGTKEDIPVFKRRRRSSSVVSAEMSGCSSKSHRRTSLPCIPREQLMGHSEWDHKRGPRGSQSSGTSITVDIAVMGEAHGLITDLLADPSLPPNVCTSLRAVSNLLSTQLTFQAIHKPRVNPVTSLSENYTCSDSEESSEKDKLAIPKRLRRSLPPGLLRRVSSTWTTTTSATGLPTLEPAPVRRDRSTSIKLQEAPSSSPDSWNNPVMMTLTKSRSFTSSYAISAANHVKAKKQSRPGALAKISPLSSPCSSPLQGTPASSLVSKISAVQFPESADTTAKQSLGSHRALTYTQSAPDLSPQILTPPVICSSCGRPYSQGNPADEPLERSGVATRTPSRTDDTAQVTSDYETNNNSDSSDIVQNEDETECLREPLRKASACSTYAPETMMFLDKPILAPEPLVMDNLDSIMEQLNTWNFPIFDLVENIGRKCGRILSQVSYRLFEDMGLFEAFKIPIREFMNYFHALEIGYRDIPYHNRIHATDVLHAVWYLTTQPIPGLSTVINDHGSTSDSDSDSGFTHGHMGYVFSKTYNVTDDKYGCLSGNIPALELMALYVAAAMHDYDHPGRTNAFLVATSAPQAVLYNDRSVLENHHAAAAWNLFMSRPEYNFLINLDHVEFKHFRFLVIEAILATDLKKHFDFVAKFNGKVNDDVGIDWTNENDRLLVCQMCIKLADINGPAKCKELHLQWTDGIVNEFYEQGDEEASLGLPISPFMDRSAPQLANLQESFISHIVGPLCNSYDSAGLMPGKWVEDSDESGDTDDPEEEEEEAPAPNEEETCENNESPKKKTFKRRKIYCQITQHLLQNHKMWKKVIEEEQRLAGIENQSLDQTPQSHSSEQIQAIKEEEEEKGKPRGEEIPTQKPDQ

IC50 (PDE3) [nM] | -log IC50, PDE4 (PDE4) | IC50 (PDE2) [µM] | IC50 (PDE5) [µM] | -log IC50, PDE1 (PDE1) | Compound
72.4 | 6.45 | – | – | – | COc1cc2c(cc1OC)[C@H]1CN(C)CC[C@H]1N=C2c1ccc(C(=O)OC(C)C)cc1 (single isomer, unassigned) [Compound 3, (-)-cis-8,9-Dimethoxy-6-(4-isoropoxycarbonylphenyl)-2-methyl-1,2,3,4,4a,10b-hexahydrobenzo[c][1,6]naphthyridine hydrochloride]
214 | 7.54 | 15.8 | 3.55 | < 4 -log(mol/l) | CCOc1cc2c(cc1OCC)[C@@H]1CN(C)CC[C@@H]1N=C2c1ccc(C(=O)OC)cc1.Cl (single isomer, unassigned) [Compound 4, (-)-cis-8,9-Diethoxy-6-(4-methoxycarbonylphenyl)-2-methyl-1,2,3,4,4a,10b-hexahydrobenzo[c][1,6]naphthyridine hydrochloride]
70.8 | 7.75 | – | – | – | CCOc1cc2c(cc1OCC)[C@@H]1CN(C)CC[C@@H]1N=C2c1ccc(C(=O)OC(C)C)cc1.Cl (single isomer, unassigned) [Compound 5, (-)-cis-8,9-Diethoxy-6-(4-isopropoxycarbonylphenyl)-2-methyl-1,2,3,4,4a,10b-hexahydrobenzo[c][1,6]naphthyridine hydrochloride]
58.9 | 7.85 | – | – | – | CCOc1cc2c(cc1OCC)[C@H]1CN(C)CC[C@H]1N=C2c1ccc(C(=O)N(C(C)C)C(C)C)cc1 (single isomer, unassigned) [Compound 11, (-)-cis-8,9-Diethoxy-6-(4-diisopropylaminocarbonylphenyl-2-methyl-1,2,3,4,4a,10b-hexahydrobenzo[c][1,6]naphthyridine hydrochloride]
186 | 7.96 | – | – | – | CCOc1cc2c(cc1OCC)[C@H]1CN(C)CC[C@H]1N=C2c1ccc(C(=O)N(C(C)C)C2CCCCC2)cc1 (single isomer, unassigned) [Compound 16, (+)-cis-8,9-Diethoxy-6-(4-N-cyclohexyl-N-isopropylaminocarbonylphenyl)-2-methyl-1,2,3,4,4a,10b-hexahydrobenzo[c][1,6]naphthyridine hydrochloride]
417 | 7.94 | – | – | – | CCCCN(CCCC)C(=O)c1ccc(C2=N[C@H]3CCN(C)C[C@H]3c3cc(OCC)c(OCC)cc32)cc1.Cl (single isomer, unassigned) [Compound 17, (+)-cis-8,9-Diethoxy-6-(4-dibutylaminocarbonylphenyl)-2-methyl-1,2,3,4,4a,10b-hexahydrobenzo[c][1,6]naphthyridine hydrochloride]
182 | 7.87 | – | – | – | CCOc1cc2c(cc1OCC)[C@@H]1CN(C)CC[C@@H]1N=C2c1ccc(C(=O)N2CCCCCC2)cc1.Cl (single isomer, unassigned) [Compound 18, (-)-cis-8,9-Diethoxy-6-[4-(hexahydroazepin-1-yl-carbonyl)phenyl]-2-methyl-1,2,3,4,4a,10b-hexahydrobenzo[c][1,6]naphthyridine hydrochloride]
27.5 | 8.18 | – | – | – | CCOc1cc2c(cc1OC)C(c1ccc(C(=O)N(C(C)C)C(C)C)cc1)=N[C@H]1CCN(C)C[C@@H]21.Cl (single isomer, unassigned) [Compound 19, (-)-cis-9-Ethoxy-8-methoxy-6-(4-diisopropylaminocarbonylphenyl)-2-methyl-1,2,3,4,4a,10b-hexahydrobenzo[c][1,6]naphthyridine hydrochloride]
457 | 7.67 | – | – | – | CCOc1cc2c(cc1OC)C(c1ccc(C(=O)OC)cc1)=N[C@H]1CCN(C)C[C@@H]21.Cl (single isomer, unassigned) [Compound 21, (-)-cis-9-Ethoxy-8-methoxy-6-(4-methoxycarbonylphenyl)-2-methyl-1,2,3,4,4a,10b-hexahydrobenzo[c][1,6]naphthyridine hydrochloride]
229 | 8.56 | – | – | – | CCCCN(CCCC)C(=O)c1ccc(C2=N[C@H]3CCN(C)C[C@H]3c3cc(OCC)c(OC)cc32)cc1.Cl (single isomer, unassigned) [Compound 23, (-)-cis-9-Ethoxy-8-methoxy-6-(4-dibutylaminocarbonylphenyl)-2-methyl-1,2,3,4,4a,10b-hexahydrobenzo[c][1,6]naphthyridine hydrochloride]
22.9 | 8.51 | – | – | – | CCOc1cc2c(cc1OC)C(c1ccc(C(=O)N3CCCCCC3)cc1)=N[C@H]1CCN(C)C[C@@H]21 (single isomer, unassigned) [Compound 24, (-)-cis-9-Ethoxy-8-methoxy-6-[4-(hexahydroazepin-1-yl-carbonyl)phenyl]-2-methyl-1,2,3,4,4a,10b-hexahydrobenzo[c][1,6]naphthyridine]
